# In patent US4308256A, “Method of inducing analgesia” (American Home Products Corporation, priority 1980, dated 1981):
# Test system: male Charles River rats
# Assay: D'Amour-Smith rat tail-flick procedure (radiant heat, 8 second cut-off), intraventricular injection
# Type: in vivo
# Method: Intraventricular cannulae, made of 27-gauge stainless steel tubing, are implanted in 300-400 g. male Charles River rats under pentobarbital anesthesia. After a recovery period of at least one week, the rats are restrained in a wire-mesh cylindrical chamber so that the tip of the tail can be positioned at the focal point of a radiant heat source. After an acclimatistation period of 5 minutes, the lamp is turned on and an electric clock activated. Movement of the tip of the tail exposes a photocell to the lamp, which turns off the thermal stimulus and stops the clock. If a rat fails to move its tail within 8 seconds, the heat is automatically turned off to prevent blistering. The intensity of the lamp is adjusted in each case to produce at least three baseline tail-flick latencies of 2.5-4.5 seconds. Tests are initially made every 2 minutes, then every 5 minutes and finally every 15 minutes.
# Initially, using the above outlined procedure, the effects of intraventricularly administered leucine-enkephalin are tested in rats according to the above procedure.
# The rat tail flick procedure is repeated, first by the simultaneous intraventricular injection of both leucine-enkephalin and bestatin and then by the initial injection of bestatin followed one hour later by the injection of leucine-enkephalin.
# The above procedure is repeated again, however, the bestatin is administered first and then one hour later the leucine-enkephalin is administered.
# The effects of bestatin alone are tested in rats according to the rat tail flick procedure.
smiles,measurement,setting,value
"CC(C)C[C@H](NC(=O)[C@@H](O)[C@H](N)Cc1ccccc1)C(=O)O [bestatin, [(2S,3R)-3-amino-2-hydroxy-4-phenylbutanoyl]-L-leucine]",Tail-flick latency,"200 μg bestatin alone into lateral ventricle, Rat 1, 2 min",4.92 s
same,Tail-flick latency,"200 μg bestatin alone into lateral ventricle, Rat 1, 4 min",7.36 s
same,Tail-flick latency,"200 μg bestatin into lateral ventricle, 200 μg leucine-enkephalin one hour later, 1 rat, 2 min after leucine-enkephalin",8.00 s
same,Tail-flick latency,"200 μg bestatin into lateral ventricle, 200 μg leucine-enkephalin one hour later, 1 rat, 4 min after leucine-enkephalin",8.00 s
same,Tail-flick latency,"200 μg bestatin into lateral ventricle, 200 μg leucine-enkephalin one hour later, 1 rat, 6 min after leucine-enkephalin",8.00 s
same,Tail-flick latency,"200 μg bestatin into lateral ventricle, 200 μg leucine-enkephalin one hour later, 1 rat, 8 min after leucine-enkephalin",8.00 s
same,Tail-flick latency,"200 μg bestatin into lateral ventricle, 200 μg leucine-enkephalin one hour later, 1 rat, 10 min after leucine-enkephalin",8.00 s
same,Tail-flick latency,"200 μg bestatin into lateral ventricle, 200 μg leucine-enkephalin one hour later, 1 rat, 12 min after leucine-enkephalin",8.00 s
same,Tail-flick latency,"200 μg bestatin into lateral ventricle, 200 μg leucine-enkephalin one hour later, 1 rat, 14 min after leucine-enkephalin",8.00 s
same,Tail-flick latency,"200 μg bestatin into lateral ventricle, 200 μg leucine-enkephalin one hour later, 1 rat, 19 min after leucine-enkephalin",8.00 s
same,Tail-flick latency,"200 μg bestatin into lateral ventricle, 200 μg leucine-enkephalin one hour later, 1 rat, 24 min after leucine-enkephalin",8.00 s
same,Tail-flick latency,"200 μg bestatin into lateral ventricle, 200 μg leucine-enkephalin one hour later, 1 rat, 29 min after leucine-enkephalin",8.00 s
same,Tail-flick latency,"200 μg bestatin into lateral ventricle, 200 μg leucine-enkephalin one hour later, 1 rat, 34 min after leucine-enkephalin",8.00 s
same,Tail-flick latency,"200 μg bestatin into lateral ventricle, 200 μg leucine-enkephalin one hour later, 1 rat, 53 min after leucine-enkephalin",8.00 s
same,Tail-flick latency,"200 μg bestatin into lateral ventricle, 200 μg leucine-enkephalin one hour later, 1 rat, 58 min after leucine-enkephalin",8.00 s
same,Tail-flick latency,"200 μg bestatin into lateral ventricle, 200 μg leucine-enkephalin one hour later, 1 rat, 63 min after leucine-enkephalin",6.07 s
same,Tail-flick latency,"200 μg bestatin into lateral ventricle, 200 μg leucine-enkephalin one hour later, 1 rat, 68 min after leucine-enkephalin",2.62 s
same,Tail-flick latency,"200 μg leucine-enkephalin + 200 μg bestatin injected together into lateral ventricle, 1 rat, 2 min",4.21 s
same,Tail-flick latency,"200 μg leucine-enkephalin + 200 μg bestatin injected together into lateral ventricle, 1 rat, 4 min",5.75 s
same,Tail-flick latency,"200 μg leucine-enkephalin + 200 μg bestatin injected together into lateral ventricle, 1 rat, 8 min",8.00 s
same,Tail-flick latency,"200 μg leucine-enkephalin + 200 μg bestatin injected together into lateral ventricle, 1 rat, 10 min",8.00 s
same,Tail-flick latency,"200 μg leucine-enkephalin + 200 μg bestatin injected together into lateral ventricle, 1 rat, 12 min",8.00 s
same,Tail-flick latency,"200 μg leucine-enkephalin + 200 μg bestatin injected together into lateral ventricle, 1 rat, 14 min",8.00 s
same,Tail-flick latency,"200 μg leucine-enkephalin + 200 μg bestatin injected together into lateral ventricle, 1 rat, 19 min",8.00 s
same,Tail-flick latency,"200 μg leucine-enkephalin + 200 μg bestatin injected together into lateral ventricle, 1 rat, 24 min",8.00 s
same,Tail-flick latency,"200 μg leucine-enkephalin + 200 μg bestatin injected together into lateral ventricle, 1 rat, 29 min",8.00 s
same,Tail-flick latency,"200 μg leucine-enkephalin + 200 μg bestatin injected together into lateral ventricle, 1 rat, 34 min",8.00 s
same,Tail-flick latency,"200 μg leucine-enkephalin + 200 μg bestatin injected together into lateral ventricle, 1 rat, 39 min",8.00 s
same,Tail-flick latency,"200 μg leucine-enkephalin + 200 μg bestatin injected together into lateral ventricle, 1 rat, 53 min",8.00 s
same,Tail-flick latency,"200 μg leucine-enkephalin + 200 μg bestatin injected together into lateral ventricle, 1 rat, 58 min",8.00 s
same,Tail-flick latency,"200 μg leucine-enkephalin + 200 μg bestatin injected together into lateral ventricle, 1 rat, 63 min",4.65 s
same,Tail-flick latency,"200 μg leucine-enkephalin + 200 μg bestatin injected together into lateral ventricle, 1 rat, 68 min",8.00 s
same,Tail-flick latency,"200 μg leucine-enkephalin + 200 μg bestatin injected together into lateral ventricle, 1 rat, 73 min",4.95 s
same,Tail-flick latency,"200 μg leucine-enkephalin + 200 μg bestatin injected together into lateral ventricle, 1 rat, 78 min",2.10 s
same,Analgesia induced by bestatin alone,"200 μg level, lateral ventricle, rat",does not appear to induce any clearcut analgesia
same,Tail-flick latency,"400 μg bestatin alone into lateral ventricle, Rat 1, 210 min",8.00 s
same,Tail-flick latency,"400 μg bestatin alone into lateral ventricle, Rat 1, 225 min",8.00 s
same,Tail-flick latency,"400 μg bestatin alone into lateral ventricle, Rat 1, 240 min",8.00 s
same,Tail-flick latency,"400 μg bestatin alone into lateral ventricle, Rat 1, 255 min",4.71 s
same,Tail-flick latency,"400 μg bestatin alone into lateral ventricle, Rat 2, 2 min",2.16 s
same,Tail-flick latency,"400 μg bestatin alone into lateral ventricle, Rat 2, 4 min",5.40 s
same,Tail-flick latency,"400 μg bestatin alone into lateral ventricle, Rat 2, 6 min",4.62 s
same,Tail-flick latency,"400 μg bestatin alone into lateral ventricle, Rat 2, 8 min",6.51 s
same,Tail-flick latency,"400 μg bestatin alone into lateral ventricle, Rat 2, 10 min",8.00 s
same,Tail-flick latency,"400 μg bestatin alone into lateral ventricle, Rat 2, 12 min",8.00 s
same,Tail-flick latency,"400 μg bestatin alone into lateral ventricle, Rat 2, 14 min",8.00 s
same,Tail-flick latency,"400 μg bestatin alone into lateral ventricle, Rat 2, 16 min",8.00 s
same,Tail-flick latency,"400 μg bestatin alone into lateral ventricle, Rat 2, 18 min",8.00 s
same,Tail-flick latency,"400 μg bestatin alone into lateral ventricle, Rat 2, 20 min",8.00 s
same,Tail-flick latency,"400 μg bestatin alone into lateral ventricle, Rat 2, 22 min",8.00 s
same,Tail-flick latency,"400 μg bestatin alone into lateral ventricle, Rat 2, 24 min",8.00 s
same,Tail-flick latency,"400 μg bestatin alone into lateral ventricle, Rat 2, 26 min",8.00 s
same,Tail-flick latency,"400 μg bestatin alone into lateral ventricle, Rat 2, 28 min",8.00 s
